These results are taken from patent US20220287936A1, “AN ANTIDANDRUFF COMPOSITION” (Conopco, Inc., d/b/a UNILEVER, priority 2019, published 2022).

This assay has as its system Malassezia furfur 14521. Nature of the assay: Antifungal activity on M. furfur (resazurin viability assay, MIC and ΣFIC synergy evaluation). In kind it is cell-based. Particulars: M. furfur 14521, YPD broth, 30° C., 72 hours, resazurin readout. The procedure: The samples as given in Table-1 were subjected to their anti fungal efficacy on M. furfur as described hereinafter.
The test organism used in the assay is Malassezia furfur 14521. The M. furfur were revived from glycerol stock in YPD agar plates (yeast extract peptone dextrose media) containing 1% corn oil. The composition of YPD is yeast extract:10 g/litre, dextrose 20 g/litre, Peptone 20 g/litre and […]. The plates were incubated at 30° C. for 72 hours for forming fungal colonies. A suspension culture of M. furfur was made using the colonies from plates in YPD broth. The optical density of the suspension culture was adjusted to 0.6 using spectrophotometer. This suspension was diluted in the ratio of 1:10 using YPD broth and 100 μl of this culture was added into each well of 96 well test plate. A stock solution of 4× strength of test ingredients (itaconic acid and sodium benzoate) was prepared for each of the concentrations tested eg for 0.125% test concentration of itaconic acid/sodium benzoate a stock of 0.5% was prepared in YPD broth. 50 μl of each of the test ingredient was added to 100 μl of M. furfur culture, making the final volume to 200 μl. In wells containing only one test ingredient, (itaconic acid or sodium benzoate only) 50 μl of test ingredient was added to 100 μl of fungal culture and then made up the volume to 200 μl with YPD broth. The plates were incubated at 30° C. for 72 hours. Post incubation 10 μl of 1% resazurin was added to each well and incubated for 18 hours at 30° C. […] The anti-fungal efficacy of the ingredient or combination of ingredients is calculated based on the colour development.
The combinations of test ingredients with synergistic anti-fungal benefits were evaluated using ΣFIC method. The ΣFIC of the combinations were calculated using the following formula • ΣFIC of combination A+B=[Concentration of A]/MIC of A+[concentration of B]/MIC of B, where MIC is the Minimum inhibitory concentration (MIC) of ingredient. […]
A general note: The colour change of resazurin is a common sign of viable cells or microbes.
On to `C=C(CC(=O)OC)C(=O)OC` [Dimethyl itaconate], for which the “MIC (Minimum inhibitory concentration)” value is listed as 0.5 wt %.
In the case of `C=C(CC(=O)O)C(=O)O` [Itaconic acid], the “MIC (Minimum inhibitory concentration)” value worked out at 0.25 wt %.
For the molecule `O=C([O-])c1ccccc1.[Na+]` [Sodium Benzoate], the “MIC (Minimum inhibitory concentration)” value turned out to be 0.5 wt %.
